The first experiment addresses T1, REV-ERBα LBD (human; residues 281-614 Δ324-422) (Homo sapiens, UniProt P20393, DEL324-422).
T1 construct: 6×Histag-REV-ERBα LBD (human; residues 281-614 Δ324-422); made in house; host or cells: Escherichia coli
Kind of experiment: TR-FRET corepressor interaction assay (REV-ERBα LBD, FITC-SMRT peptide). Type of experiment: biochemical. The conditions noted are these: FITC-SMRT peptide, read-out: REVERBα agonism (EC50 class, FRET assay). The method, then:
TR-FRET corepressor interaction assay. The time-resolved fluorescence resonance energy transfer (TR-FRET) assay was performed in black low-volume 384-well plates (Greiner). […] Ligand stocks were prepared via serial dilution in DMSO, added to wells in triplicate, and plates were incubated at 4° C. for 2 h and read using a BioTek Synergy Neo multimode plate reader. The Tb donor was excited at 340 nm; its fluorescence emission was monitored at 495 nm, and the acceptor FITC emission was measured at 520 nm; and the TR-FRET ratio was calculated as the signal at 520 nm divided by the signal at 495 nm. Data were plotted using GraphPad Prism as TR-FRET ratio vs. ligand concentration and fit to sigmoidal dose response curve equation.
T1 sequence (P20393 with tags, fused parts or gaps DEL324-422): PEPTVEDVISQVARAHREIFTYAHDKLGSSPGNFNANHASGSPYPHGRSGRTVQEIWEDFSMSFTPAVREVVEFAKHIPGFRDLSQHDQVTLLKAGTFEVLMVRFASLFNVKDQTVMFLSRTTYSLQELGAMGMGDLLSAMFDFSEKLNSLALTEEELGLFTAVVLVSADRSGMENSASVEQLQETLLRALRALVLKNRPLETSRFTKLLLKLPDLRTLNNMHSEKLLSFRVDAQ
T1 sequence (Q9Y618 2335-2356 partner limits assumed): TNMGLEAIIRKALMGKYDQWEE
With `CC(C)(C)Cn1cc([C@H](NS(=O)(=O)C2CCC2)C(F)(F)F)c2cc(F)c(-c3cccnc3C#N)cc21` (racemic) [Example 529, (S)—N-(1-(6-(2-cyanopyridin-3-yl)-5-fluoro-1-neopentyl-1H-indol-3-yl)-2,2,2-trifluoroethyl)cyclobutanesulfonamide], the EC50 is less than 0.5 µM.

The experiment is the same for the next values; noted with them: Table 2, read-out: REVERBα agonism (EC50 class, FRET assay).
As for `CC(C)(O)Cn1cc([C@H](NS(=O)(=O)C2CCC2)C(F)(F)F)c2ccc(-c3ccccc3C(F)(F)F)nc21` (racemic) [Example 412, N-[rac-(1S)-2,2,2-trifluoro-1-[1-(2-hydroxy-2-methyl-propyl)-6-[2-(trifluoromethyl)phenyl]pyrrolo[2,3-b]pyridin-3-yl]ethyl]cyclobutanesulfonamide], the EC50 was 0.5 to 3 µM.

With `CC(C)Cn1cc(CCNS(C)(=O)=O)c2ccc(-c3ccncc3)cc21` [Compound 3], the EC50 lay within 0.5 to 3 µM.

In the case of `CC(C)Cn1cc(CCN(C)S(=O)(=O)N(C)C)c2ccc(-c3ccncc3)cc21` [Compound 5], the EC50 is less than 0.5 µM.

Regarding `CCCn1cc(CCNS(=O)(=O)N(C)C)c2ccc(-c3ccncc3)cc21` [Compound 6], the EC50 was less than 0.5 µM.

In the case of `CN(C)S(=O)(=O)NCCc1cn(CC2CC2)c2cc(-c3ccncc3)ccc12` [Compound 7], the EC50 is less than 0.5 µM.

With `CN(C)S(=O)(=O)NCCc1cn(Cc2ccccc2)c2cc(-c3ccncc3)ccc12` [Compound 8], the EC50 was less than 0.5 µM.

As to `CN(C)S(=O)(=O)NCCc1cn(CC2CCOC2)c2cc(-c3ccncc3)ccc12` (stereo not shown) [Compound 9], the EC50 was in the range of 0.5 to 3 µM.

As for `COc1cc(-c2ccc3c(CCNS(=O)(=O)N(C)C)cn(CC(C)C)c3c2)ccn1` [Compound 19], the EC50 was in the range of 0.5 to 3 µM.

On to `CN(C)S(=O)(=O)NCCc1c[nH]c2cc(-c3ccncc3)ccc12` [Compound 40, dimethyl({2-[6-(pyridin-4-yl)-1H-indol-3-yl]ethyl}sulfamoyl)amine], for which the EC50 is greater than 3 µM.

`CC(=O)n1cc(CCNS(=O)(=O)N(C)C)c2ccc(-c3ccncc3)cc21` [Compound 42, 1-(3-{2-[(dimethylsulfamoyl)amino]ethyl}-6-(pyridin-4-yl)-1H-indol-1-yl)ethan-1-one]: the EC50 is greater than 3 µM.

Take `CC(C)C(=O)n1cc(CCNS(=O)(=O)N(C)C)c2ccc(-c3ccncc3)cc21` [Compound 43, 1-(3-{2-[(dimethylsulfamoyl)amino]ethyl}-6-(pyridin-4-yl)-1H-indol-1-yl)-2-methylpropan-1-one]: the EC50 was less than 0.5 µM.

On to `CC(C)Cc1cn(C2CCN(S(=O)(=O)C(C)C)C2)c2ccc(-c3ccncc3)cc12` (stereo not shown) [Compound 44], for which the EC50 lay in the range of 0.5 to 3 µM.

Regarding `Cc1noc(C)c1-c1ccc2c(CCNS(=O)(=O)N(C)C)cn(CC(C)C)c2c1` [Compound 64, ({2-[6-(3,5-dimethyl-1,2-oxazol-4-yl)-1-(2-methylpropyl)-1H-indol-3-yl]ethyl}sulfamoyl)dimethylamine], the EC50 was greater than 3 µM.

As for `CC(C)Cn1cc(CCNS(=O)(=O)N(C)C)c2ccc(-c3cnoc3)cc21` [Compound 65, dimethyl({2-[1-(2-methylpropyl)-6-(1,2-oxazol-4-yl)-1H-indol-3-yl]ethyl}sulfamoyl)amine], the EC50 lay in the range of 0.5 to 3 µM.

Regarding `CC(C)Cn1cc(CCNS(=O)(=O)N(C)C)c2ccc(-c3ccoc3)cc21` [Compound 66, ({2-[6-(furan-3-yl)-1-(2-methylpropyl)-1H-indol-3-yl]ethyl}sulfamoyl)dimethylamine], the EC50 was less than 0.5 µM.

In the case of `CC(C)Cn1cc(CCNS(=O)(=O)N(C)C)c2ccc(-c3ncco3)cc21` [Compound 67, dimethyl({2-[1-(2-methylpropyl)-6-(1,3-oxazol-2-yl)-1H-indol-3-yl]ethyl}sulfamoyl)amine], the EC50 fell in the range of 0.5 to 3 µM.

With `CC(C)Cn1cc(CCNS(=O)(=O)N(C)C)c2ccc(Nc3ccnn3C)cc21` [Compound 69, 3-{2-[(dimethylsulfamoyl)amino]ethyl}-N-(1-methyl-1H-pyrazol-5-yl)-1-(2-methylpropyl)-1H-indol-6-amine], the EC50 is greater than 3 µM.

For `CC(C)Cn1cc(CCNS(=O)(=O)N(C)C)c2ccc(NC(=O)Cc3ccccc3)cc21` [Compound 70, N-(3-{2-[(dimethylsulfamoyl)amino]ethyl}-1-(2-methylpropyl)-1H-indol-6-yl)-2-phenylacetamide], the EC50 is greater than 3 µM.

Regarding `CC(C)Cn1cc(CCNS(=O)(=O)N(C)C)c2ccc(NC(=O)c3ccccc3)cc21` [Compound 71], the EC50 is greater than 3 µM.

With `CC(C)Cn1cc(CCNS(=O)(=O)N(C)C)c2ccc(C#N)cc21` [Compound 96, 3-{2-[(dimethylsulfamoyl)amino]ethyl}-1-(2-methylpropyl)-1H-indole-6-carbonitrile], the EC50 is less than 0.5 µM.

As to `CC(C)Cn1cc(CCNS(=O)(=O)N(C)C)c2ccc(Br)cc21` [Compound 97, ({2-[6-bromo-1-(2-methylpropyl)-1H-indol-3-yl]ethyl}sulfamoyl)dimethylamine], the EC50 was less than 0.5 µM.

Consider `CC(C)Cn1cc(CCNS(=O)(=O)N(C)C)c2ccc(C3CCN(C(=O)OC(C)(C)C)CC3)cc21` [Compound 101, tert-butyl 4-(3-{2-[(dimethylsulfamoyl)amino]ethyl}-1-(2-methylpropyl)-1H-indol-6-yl)piperidine-1-carboxylate], for which the EC50 lay within 0.5 to 3 µM.

Turning to `CC(C)Cn1cc(CCNS(=O)(=O)N(C)C)c2ccc(C3CCNCC3)cc21` [Compound 102, dimethyl({2-[1-(2-methylpropyl)-6-(piperidin-4-yl)-1H-indol-3-yl]ethyl}sulfamoyl)amine], the EC50 is greater than 3 µM.

Turning to `CC(=O)N1CCC(c2ccc3c(CCNS(=O)(=O)N(C)C)cn(CC(C)C)c3c2)CC1` [Compound 103, 1-[4-(3-{2-[(dimethylsulfamoyl)amino]ethyl}-1-(2-methylpropyl)-1H-indol-6-yl)piperidin-1-yl]ethan-1-one], the EC50 was greater than 3 µM.

As to `CC(C)Cn1cc(CCN(C)S(=O)(=O)N(C)C)c2ccc(C#N)cc21` [Compound 122, 3-{2-[(dimethylsulfamoyl)(methyl)amino]ethyl}-1-(2-methylpropyl)-1H-indole-6-carbonitrile], the EC50 is greater than 3 µM.

`CC(C)Cn1cc(CCN(C)S(=O)(=O)N(C)C)c2ccc(Br)cc21` [Compound 123, ({2-[6-bromo-1-(2-methylpropyl)-1H-indol-3-yl]ethyl}(methyl)sulfamoyl)dimethylamine]: the EC50 lay in the range of 0.5 to 3 µM.

Regarding `CC(C)CC(=O)n1cc(CCNS(=O)(=O)N(C)C)c2ccc(-c3ccncc3)cc21` [Compound 155, 1-(3-{2-[(dimethylsulfamoyl)amino]ethyl}-6-(pyridin-4-yl)-1H-indol-1-yl)-3-methylbutan-1-one], the EC50 was 0.5 to 3 µM.

In the case of `CN(C)S(=O)(=O)NCCc1cn(C(=O)C(C)(C)C)c2cc(-c3ccncc3)ccc12` [Compound 156, 1-(3-{2-[(dimethylsulfamoyl)amino]ethyl}-6-(pyridin-4-yl)-1H-indol-1-yl)-2,2dimethylpropan-1-one], the EC50 was greater than 3 µM.

Take `CCn1cc(CCNS(=O)(=O)N(C)C)c2ccc(Br)cc21` [Compound 157, {[2-(6-bromo-1-ethyl-1H-indol-3-yl)ethyl]sulfamoyl}dimethylamine]: the EC50 lay within 0.5 to 3 µM.

As for `CC(C)Cn1cc(CCNS(=O)(=O)N(C)C)c2ccc(-c3ccncc3C(F)(F)F)cc21` [Compound 206, dimethyl({2-[1-(2-methylpropyl)-6-[3-(trifluoromethyl)pyridin-4-yl]-1H-indol-3-yl]ethyl}sulfamoyl)amine], the EC50 is less than 0.5 µM.

In the case of `COc1ccc2cc(-c3ccc4c(c3)c(CC(C)(C)C)cn4CCNS(=O)(=O)C3CC3)ccc2c1` [Compound 220], the EC50 was greater than 3 µM.

Take `CC(C)(C)Cc1cn(CCNS(=O)(=O)C2CC2)c2ccc(-c3ccc(F)c(F)c3)cc12` [Compound 226]: the EC50 lay in the range of 0.5 to 3 µM.

With `CC(C)Cn1cc(CCNS(=O)(=O)N(C)C)c2cc(-c3ccncc3)ccc21` [Compound 232], the EC50 is greater than 3 µM.

Regarding `CC(C)Cn1cc(CC(=O)NS(=O)(=O)N(C)C)c2ccc(-c3ccncc3)cc21` [Compound 234], the EC50 was greater than 3 µM.

Regarding `CC(C)Cn1cc(CCCNS(=O)(=O)N(C)C)c2ccc(-c3ccncc3)cc21` [Compound 235], the EC50 was greater than 3 µM.

Consider `Cc1c(CCNS(=O)(=O)N(C)C)c2ccc(-c3ccncc3)cc2n1CC(C)C` [Compound 236], for which the EC50 was in the range of 0.5 to 3 µM.

In the case of `CN(C)S(=O)(=O)NCCc1cn(CCOC(C)(C)C)c2cc(-c3ccncc3)ccc12` [Compound 237], the EC50 is 0.5 to 3 µM.

As to `CC(C)Cn1cc(CNS(=O)(=O)N(C)C)c2ccc(-c3ccncc3)cc21` [Compound 238], the EC50 was 0.5 to 3 µM.

On to `CC(C)Cn1cc(CNS(=O)(=O)N(C)C)c2ccc(-c3ccncc3)cc21` [Compound 239], for which the EC50 was less than 0.5 µM.

Take `CC(C)Cn1cc(CNS(=O)(=O)C2CCCC2)c2ccc(-c3ccncc3)cc21` [Compound 243]: the EC50 is less than 0.5 µM.

In the case of `CC(C)Cn1cc(CNS(=O)(=O)N2CCCC2)c2ccc(-c3ccncc3)cc21` [Compound 244], the EC50 is less than 0.5 µM.

As to `CC(C)Cn1cc(CNS(=O)(=O)CC(C)C)c2ccc(-c3ccncc3)cc21` [Compound 245], the EC50 was less than 0.5 µM.

With `CC(C)Cn1cc(CN(C)S(=O)(=O)N(C)C)c2ccc(-c3ccncc3)cc21` [Compound 246], the EC50 was in the range of 0.5 to 3 µM.

As for `CC(C)Cn1cc(CCS(=O)(=O)C(C)C)c2ccc(Br)cc21` [Compound 247], the EC50 is 0.5 to 3 µM.

In the case of `CC(C)Cn1cc(CCS(=O)(=O)C(C)C)c2ccc(-c3ccncc3)cc21` [Compound 248], the EC50 was less than 0.5 µM.

In general, EC50 refers to the concentration giving half of the maximal effect.

Source of the values: US20230339886A1 (University of Florida Research Foundation, Incorporated, priority 2020, published 2023).
